Laboratory results as given in patent US9199942B2, “Processes for the preparation of pesticidal compounds” (Dow AgroSciences LLC, priority 2013, dated 2015).
Counter-ions that a name gives are not always drawn. Like-named read-outs stand apart in the source and are kept apart here.

Legend:
[1] = tested on: Green Peach Aphid (Myzus persicae) (MYZUPE); test: Bioassay on green peach aphid (GPA), foliar spray on infested cabbage seedlings; format: in vivo; details: 72 h, read-out: MYZUPE rating (% Control of Mortality)
Experimental: Example A Bioassays on Green Peach Aphid (“GPA”) (Myzus persicae) (MYZUPE.
Several molecules disclosed herein were tested against GPA using procedures described below.
Cabbage seedling grown in 3-in pots, with 2-3 small (3-5 cm) true leaves, were used as test substrate. The seedlings were infested with […] (wingless adult and nymph stages) one day prior to chemical application. Four posts with individual seedlings were used for each treatment. Test compounds (2 mg) were dissolved in 2 mL of acetone/methanol (1:1) solvent, forming stock solutions of 1000 ppm test compound. The stock solutions were diluted 5× with 0.025% Tween 20 in water to obtain the solution at 200 ppm test compound. A hand-held aspirator-type sprayer was used for spraying a solution to both sides of the cabbage leaves until runoff. Reference plants (solvent check) were sprayed with the diluent only containing 20% by volume acetone/methanol (1:1) solvent. Treated plants were held in a holding room for three days at approximately 25° C. and ambient relative humidity (RH) prior to grading. Evaluation was conducted by counting the number of live aphids per plant under a microscope. Percent Control was measured by using Abbott's correction formula (W. S. Abbott, “A Method of Computing the Effectiveness of an Insecticide” J. Econ. Entomol 18 (1925), pp. 265-267) as follows. Corrected % Control=100*(X−Y)/X • where • X=No. of live aphids on solvent check plants and • Y=No. of live aphids on treated plants
The results are indicated in the table entitled “Table 1: GPA (MYZUPE) and sweetpotato whitefly-crawler (BEMITA) Rating Table”.

[2] = tested on: Sweetpotato Whitefly Crawler (Bemisia tabaci) (BEMITA); test: Bioassay on sweetpotato whitefly crawler, foliar spray on infested cotton plants; format: in vivo; details: read-out: BEMITA rating (% Control of Mortality)
Source text: Example B Bioassays on Sweetpotato Whitefly Crawler (Bemisia tabaci) (BEMITA.)
Cotton plants grown in 3-inch pots, with 1 small (3-5 cm) true leaf, were used at test substrate. The plants were placed in a room with whitely adults. Adults were allowed to deposit eggs for 2-3 days. After a 2-3 day egg-laying period, plants were taken from the adult whitefly room. Adults were blown off leaves using a hand-held Devilbliss sprayer (23 psi). Plants with egg infestation (100-300 eggs per plant) were placed in a holding room for 5-6 days at 82° F. and 50% RH for egg hatch and crawler stage to develop. Four cotton plants were used for each treatment. Compounds (2 mg) were dissolved in 1 mL of acetone solvent, forming stock solutions of 2000 ppm. The stock solutions were diluted 10× with 0.025% Tween 20 in water to obtain a test solution at 200 ppm. A hand-held Devilbliss sprayer was used for spraying a solution to both sides of cotton leaf until runoff. Reference plants (solvent check) were sprayed with the diluent only. Treated plants were held in a holding room for 8-9 days at approximately 82° F. and 50% RH prior to grading. Evaluation was conducted by counting the number of live nymphs per plant under a microscope.

[3] = 200 ppm spray on cabbage leaves, live aphids counted after three days, Abbott's correction
[4] = 200 ppm spray on cotton leaves, live nymphs counted after 8-9 days, Abbott's correction

Structure (SMILES) | mortality at 200 ppm [1] [%] | mortality at 200 ppm [2] [%] | mortality at 200 ppm [1, 3] [%] | mortality at 200 ppm [2, 4] [%]
Nc1c[nH]nc1Cl [Compound 1a, 3-chloro-1H-pyrazol-4-amine hydrochloride] | 0 to 80 | 0 to 80 | – | –
O=C(CCSCCC(F)(F)F)Nc1c[nH]nc1Cl [Compound 3.4] | – | – | 0 to 80 | 0 to 80
O=C(CCCl)Nc1c[nH]nc1Cl [Compound 4a, 3-chloro-N-(-3-chloro-1H-pyrazol-4-yl) propanamide] | – | – | < 0 | 0 to 80
